Laboratory results from patent publication US20220330594A1 (WisTa Laboratories Ltd., priority 2019, published 2022).
Where a name gives a salt, the structure may show the parent alone.

Experiments:
[1] = system: acetylcholine (ACh) levels in hippocampus; assay: Hippocampal acetylcholine levels by implanted microdialysis probe and HPLC; format: in vivo; settings: wild-type mice
Method: […] Rivastigmine was administered subcutaneously with an Alzet minipump whereas LMTM was administered by oral gavage. Levels of ACh were measured in hippocampus using an implanted microdialysis probe and HPLC analysis of the extracellular fluid.
Data are presented as group averages and standard errors of mean and were analysed using parametric statistics, with alpha set to 0.05.

synaptophysin = assay: Quantitative immunohistochemistry of synaptophysin in brain sections; format: in vivo; settings: wild-type mice
Method: (§1) Wild-type and L1 mice (n=7-16 for each group) were pre-treated with rivastigmine (0.1 or 0.5 mg/kg/day) or memantine (2 or 20 mg/kg/day) or vehicle for 5 weeks by gavage. For the following 6 weeks, LMTM (5 and 15 mg/kg) or vehicle were added to this daily treatment regime, also by gavage. Animals were tested behaviourly during weeks 10 and 11 using a problem solving task in the open field water maze and then sacrificed for immunohistochemical and other tissue analyses.

Mitochondrial complex IV = assay: Direct measurement of mitochondrial complex IV activity after treatment; format: in vivo; settings: wild type mice
Method: as §1, with “The treatment schedule used to study the negative interaction between symptomatic treatments and LMTM was designed to model the clinical situation in which subjects are first treated chronically with a cholinesterase inhibitor or memantine before receiving LMTM. In what follows, we summarise some of the key results obtained for the AChEI, rivastigmine. Wild-type” for “Wild-type”

wild-type mice = assay: Behaviour: problem solving task in the open field water maze; format: in vivo
Method: as §1, with “The treatment schedule used to study the negative interaction between symptomatic treatments and LMTM was designed to model the clinical situation in which subjects are first treated chronically with a cholinesterase inhibitor or memantine before receiving LMTM. In what follows, we summarise some of the key results obtained for the AChEI, rivastigmine. Wild-type” for “Wild-type”

[2] = system: ACh levels in the hippocampus; assay: Hippocampal ACh microdialysis with rivastigmine and scopolamine in the perfusion fluid; format: in vivo, wild type mice
Text: Under the condition of cholinesterase inhibition used in these experiments (a very small amount of a cholinesterase inhibitor, 100 nanomolar rivastigmine, added to the perfusion fluid), ACh levels in the hippocampus rise, and when they rise strongly enough, they limit additional ACh release by activating pre-synaptic muscarinic receptors of the M2/M4 subtype (so-called negative feedback receptors).
In this situation, adding scopolamine ([…]) to the perfusion fluid blocks these presynaptic receptors and, as a consequence, ACh levels rise by 3-5 fold. The fact that LMTM is not additive with rivastigmine in these experiments supports the conclusion that LMTM has a different mechanism of action from rivastigmine. In other words, although LMTM has been described as being a weak inhibitor of cholinesterases in high concentrations, the present effects seem to be unrelated to cholinesterase inhibition, because there is no additive effect with small quantities of rivastigmine.

tau transgenic L1 mice = assay: Treatment effects of LMTM and rivastigmine in tau transgenic L1 mice; format: in vivo; settings: results not shown
Text: In the L1 mouse model which was used in some of the present studies, there is over-expression of a three-repeat tau fragment encompassing residues 296-390 of the 2N4R tau isoform under the control of the Thy 1 promotor in an NMRI mouse strain (WO2002/059150). This fragment corresponds to the segment of tau first identified within the proteolytically stable core of the PHF (Wischik et al., 1988a; Wischik et al., 1988b) and recently confirmed by cryo-electronmicroscopy of PHFs in AD and tau filaments in Pick's disease (Fitzpatrick et al., 2017; Falcon et al., 2018).
The treatment schedule used to study the negative interaction between symptomatic treatments and LMTM was designed to model the clinical situation in which subjects are first treated chronically with a cholinesterase inhibitor or memantine before receiving LMTM. In what follows, we summarise some of the key results obtained for the AChEI, rivastigmine. […]
For measurement of acetylcholine (ACh) levels in hippocampus, animals (wild-type or L1) were treated with LMTM (5 mg/kg/day for 2 weeks) after prior treatment for 2 weeks with or without rivastigmine (0.5 mg/kg/day). […] Levels of ACh were measured in hippocampus using an implanted microdialysis probe and HPLC analysis of the extracellular fluid.

[3] = LMTM alone 5 or 15 mg/kg/day, approximate rounded percentage

For CN(C)c1ccc2c(c1)Sc1cc(N(C)C)ccc1N2 [LMTM, hydromethylthionine mesylate], which “increase in basal ACh levels in hippocampus” value ([1]; LMTM 5 mg/kg/day for 2 weeks, oral gavage, significant (FIG. 1A)) is on record?
The value was 2 fold.

What about the “ACh release, ↑ (increase)” value [1, 3] of the same compound?
The value was “↑ × 200%”.

And the “Synaptophysin, ↑ (increase)” value (synaptophysin; [3])?
Its value is “↑ × 300%”.

And the “increase in mean synaptophysin levels” value (synaptophysin; mean of hippocampus, visual cortex, diagonal band and septum, LMTM alone (FIG. 1B))?
Its value is 3 fold.

And the “complex IV activity following LMTM treatment” value (Mitochondrial complex IV)?
Its value is “did not show any increase”.

And the spatial recognition memory (wild-type mice)?
The spatial recognition memory was “not associated with improvement”.

What about the “effect on ACh levels in scopolamine experiments” value ([2]; wild type mice, 100 nanomolar rivastigmine in the perfusion fluid, scopolamine blocking M2/M4 receptors) of the same compound?
The value was “less than that seen with rivastigmine alone”.

And the “treatment effects in L1 mice compared with wild-type mice” value (tau transgenic L1 mice)?
Its value is “larger and more generalised”.

How did the “rise in ACh levels in the hippocampus” value ([2]; scopolamine (μM) added to perfusion fluid containing 100 nanomolar rivastigmine) turn out when CN1[C@@H]2C[C@@H](OC(=O)[C@H](CO)c3ccccc3)C[C@H]1[C@@H]1O[C@@H]12 [scopolamine, reference compound] was run?
The value was 3-5 fold.
